Article PMC5146859, “Phase 1/2 study of pacritinib, a next generation JAK2/FLT3 inhibitor, in myelofibrosis or other myeloid malignancies” (Journal of Hematology & Oncology, 2016)
Entries after “also recorded” stand apart in the source; their conditions may differ.

Tested on: patients with advanced myeloid malignancies
Assay: Phase 1 safety: adverse events (NCIC-CTCAE version 3.0)
Format: in vivo, human
Description: At screening/baseline, patients underwent a medical history, physical examination, vital sign assessment, ECOG PS assessment, electrocardiogram, and assessment of hematologic parameters and blood chemistry. Hematology/blood chemistry, physical examinations, and vital sign assessments were performed throughout treatment. Toxicity was assessed using the National Cancer Institute Common Terminology Criteria for Adverse Events (NCIC-CTCAE), version 3.0, with relationship to treatment assigned by the investigator and were recorded from the first dose of pacritinib until 30 days after the last dose. Bone marrow biopsy and/or aspirate samples were drawn at baseline, on day 1 of cycle 4 and cycle 10, as clinically indicated, and at the termination visit. Disease response and progression were determined using the relevant International Working Group (IWG) criteria.
The efficacy-evaluable population included those patients with a baseline and corresponding follow-up value. The safety population included all enrolled patients who received ≥1 dose of pacritinib.

[1] = phase 1, 500 mg QD cohort of seven
[2] = phase 1, all patients n = 43, Grade 1/2
[3] = phase 1, all patients n = 43, Grade 3/4

C1=C/COCc2cc(ccc2OCCN2CCCC2)Nc2nccc(n2)-c2cccc(c2)COC/1 [pacritinib, 11-(2-pyrrolidin-1-yl-ethoxy)-14,19-dioxa-5,7,26-triaza-tetracyclo[19.3.1.1(2,6). 1(8,12)]heptacosa-1(25),2(26),3,5,8,10,12(27),16,21,23-decaene]
Treatment-emergent AE: Petechiae (phase 1, 400 mg, n = 6): 0 n (%) | Treatment-emergent AE: Pyrexia (phase 1, 400 mg, n = 6): 2 (33.3) n (%) | Treatment-emergent AE: Skin lesion (phase 1, 400 mg, n = 6): 0 n (%) | Treatment-emergent AE: Thrombocytopenia (phase 1, 400 mg, n = 6): 2 (33.3) n (%) | Treatment-emergent AE: Upper respiratory tract infection (phase 1, 400 mg, n = 6): 0 n (%) | Treatment-emergent AE: Vomiting (phase 1, 400 mg, n = 6): 3 (50.0) n (%) | Patients who discontinued treatment due to AEs [1]: two | Patients who experienced a serious AE [1]: three | Patients who required dose interruptions [1]: three | Patients who required dose reductions [1]: three | Treatment-emergent AE: Abdominal distension (phase 1, 500 mg, n = 7): 1 (14.3) n (%) | Treatment-emergent AE: Abdominal pain (phase 1, 500 mg, n = 7): 0 n (%) | Treatment-emergent AE: Anemia (phase 1, 500 mg, n = 7): 2 (28.6) n (%) | Treatment-emergent AE: Any AE (phase 1, 500 mg, n = 7): 7 (100.0) n (%) | Treatment-emergent AE: Asthenia (phase 1, 500 mg, n = 7): 1 (14.3) n (%) | Treatment-emergent AE: Back pain (phase 1, 500 mg, n = 7): 1 (14.3) n (%) | Treatment-emergent AE: Cardiac murmur (phase 1, 500 mg, n = 7): 1 (14.3) n (%) | Treatment-emergent AE: Chills (phase 1, 500 mg, n = 7): 1 (14.3) n (%) | Treatment-emergent AE: Constipation (phase 1, 500 mg, n = 7): 1 (14.3) n (%) | Treatment-emergent AE: Cough (phase 1, 500 mg, n = 7): 0 n (%) | Treatment-emergent AE: Decreased appetite (phase 1, 500 mg, n = 7): 0 n (%) | Treatment-emergent AE: Dehydration (phase 1, 500 mg, n = 7): 1 (14.3) n (%) | Treatment-emergent AE: Diarrhea (phase 1, 500 mg, n = 7): 7 (100.0) n (%) | Treatment-emergent AE: Dizziness (phase 1, 500 mg, n = 7): 1 (14.3) n (%) | Treatment-emergent AE: Dyspnea (phase 1, 500 mg, n = 7): 1 (14.3) n (%) | Treatment-emergent AE: Edema peripheral (phase 1, 500 mg, n = 7): 2 (28.6) n (%) | Treatment-emergent AE: Epistaxis (phase 1, 500 mg, n = 7): 0 n (%) | Treatment-emergent AE: Fatigue (phase 1, 500 mg, n = 7): 3 (42.9) n (%) | Treatment-emergent AE: Hyperbilirubinemia (phase 1, 500 mg, n = 7): 0 n (%) | Treatment-emergent AE: Hyperuricemia (phase 1, 500 mg, n = 7): 1 (14.3) n (%) | Treatment-emergent AE: Insomnia (phase 1, 500 mg, n = 7): 1 (14.3) n (%) | Treatment-emergent AE: Nausea (phase 1, 500 mg, n = 7): 5 (71.4) n (%) | Treatment-emergent AE: Neutropenia (phase 1, 500 mg, n = 7): 0 n (%) | Treatment-emergent AE: Night sweats (phase 1, 500 mg, n = 7): 1 (14.3) n (%) | Treatment-emergent AE: Pain in extremity (phase 1, 500 mg, n = 7): 0 n (%) | Treatment-emergent AE: Petechiae (phase 1, 500 mg, n = 7): 1 (14.3) n (%) | Treatment-emergent AE: Pyrexia (phase 1, 500 mg, n = 7): 2 (28.6) n (%) | Treatment-emergent AE: Skin lesion (phase 1, 500 mg, n = 7): 0 n (%) | Treatment-emergent AE: Thrombocytopenia (phase 1, 500 mg, n = 7): 1 (14.3) n (%) | Treatment-emergent AE: Upper respiratory tract infection (phase 1, 500 mg, n = 7): 0 n (%) | Treatment-emergent AE: Vomiting (phase 1, 500 mg, n = 7): 3 (42.9) n (%) | Treatment-emergent AE: Abdominal distension (phase 1, 600 mg, n = 6): 2 (33.3) n (%) | Treatment-emergent AE: Abdominal pain (phase 1, 600 mg, n = 6): 1 (16.7) n (%) | Treatment-emergent AE: Anemia (phase 1, 600 mg, n = 6): 3 (50.0) n (%) | Treatment-emergent AE: Any AE (phase 1, 600 mg, n = 6): 6 (100.0) n (%) | Treatment-emergent AE: Asthenia (phase 1, 600 mg, n = 6): 2 (33.3) n (%) | Treatment-emergent AE: Back pain (phase 1, 600 mg, n = 6): 0 n (%) | Treatment-emergent AE: Cardiac murmur (phase 1, 600 mg, n = 6): 2 (33.3) n (%) | Treatment-emergent AE: Chills (phase 1, 600 mg, n = 6): 1 (16.7) n (%) | Treatment-emergent AE: Constipation (phase 1, 600 mg, n = 6): 1 (16.7) n (%) | Treatment-emergent AE: Cough (phase 1, 600 mg, n = 6): 0 n (%) | Treatment-emergent AE: Decreased appetite (phase 1, 600 mg, n = 6): 1 (16.7) n (%) | Treatment-emergent AE: Dehydration (phase 1, 600 mg, n = 6): 1 (16.7) n (%) | Treatment-emergent AE: Diarrhea (phase 1, 600 mg, n = 6): 6 (100.0) n (%) | Treatment-emergent AE: Dizziness (phase 1, 600 mg, n = 6): 1 (16.7) n (%) | Treatment-emergent AE: Dyspnea (phase 1, 600 mg, n = 6): 3 (50.0) n (%) | Treatment-emergent AE: Edema peripheral (phase 1, 600 mg, n = 6): 3 (50.0) n (%) | Treatment-emergent AE: Epistaxis (phase 1, 600 mg, n = 6): 1 (16.7) n (%) | Treatment-emergent AE: Fatigue (phase 1, 600 mg, n = 6): 1 (16.7) n (%) | Treatment-emergent AE: Hyperbilirubinemia (phase 1, 600 mg, n = 6): 0 n (%) | Treatment-emergent AE: Hyperuricemia (phase 1, 600 mg, n = 6): 3 (50.0) n (%) | Treatment-emergent AE: Insomnia (phase 1, 600 mg, n = 6): 0 n (%) | Treatment-emergent AE: Nausea (phase 1, 600 mg, n = 6): 4 (66.7) n (%) | Treatment-emergent AE: Neutropenia (phase 1, 600 mg, n = 6): 0 n (%) | Treatment-emergent AE: Night sweats (phase 1, 600 mg, n = 6): 1 (16.7) n (%) | Treatment-emergent AE: Pain in extremity (phase 1, 600 mg, n = 6): 1 (16.7) n (%) | Treatment-emergent AE: Petechiae (phase 1, 600 mg, n = 6): 0 n (%) | Treatment-emergent AE: Pyrexia (phase 1, 600 mg, n = 6): 2 (33.3) n (%) | Treatment-emergent AE: Skin lesion (phase 1, 600 mg, n = 6): 0 n (%) | Treatment-emergent AE: Thrombocytopenia (phase 1, 600 mg, n = 6): 1 (16.7) n (%) | Treatment-emergent AE: Upper respiratory tract infection (phase 1, 600 mg, n = 6): 0 n (%) | Treatment-emergent AE: Vomiting (phase 1, 600 mg, n = 6): 3 (50.0) n (%) | Treatment-emergent AE: Abdominal distension [2]: 9 (20.9) n (%) | Treatment-emergent AE: Abdominal pain [2]: 6 (14.0) n (%) | Treatment-emergent AE: Anemia [2]: 3 (7.0) n (%) | Treatment-emergent AE: Any AE [2]: 8 (18.6) n (%) | Treatment-emergent AE: Asthenia [2]: 6 (14.0) n (%) | Treatment-emergent AE: Back pain [2]: 7 (16.3) n (%) | Treatment-emergent AE: Cardiac murmur [2]: 6 (14.0) n (%) | Treatment-emergent AE: Chills [2]: 5 (11.6) n (%) | Treatment-emergent AE: Constipation [2]: 11 (25.6) n (%) | Treatment-emergent AE: Cough [2]: 5 (11.6) n (%) | Treatment-emergent AE: Decreased appetite [2]: 8 (18.6) n (%) | Treatment-emergent AE: Dehydration [2]: 5 (11.6) n (%) | Treatment-emergent AE: Diarrhea [2]: 28 (65.1) n (%) | Treatment-emergent AE: Dizziness [2]: 6 (14.0) n (%) | Treatment-emergent AE: Dyspnea [2]: 9 (20.9) n (%) | Treatment-emergent AE: Edema peripheral [2]: 10 (23.3) n (%) | Treatment-emergent AE: Epistaxis [2]: 7 (16.3) n (%) | Treatment-emergent AE: Fatigue [2]: 9 (20.9) n (%) | Treatment-emergent AE: Hyperbilirubinemia [2]: 5 (11.6) n (%) | Treatment-emergent AE: Hyperuricemia [2]: 5 (11.6) n (%) | Treatment-emergent AE: Insomnia [2]: 7 (16.3) n (%) | Treatment-emergent AE: Nausea [2]: 19 (44.2) n (%) | Treatment-emergent AE: Neutropenia [2]: 2 (4.7) n (%) | Treatment-emergent AE: Night sweats [2]: 6 (14.0) n (%) | Treatment-emergent AE: Pain in extremity [2]: 5 (11.6) n (%) | Treatment-emergent AE: Petechiae [2]: 5 (11.6) n (%) | Treatment-emergent AE: Pyrexia [2]: 9 (20.9) n (%) | Treatment-emergent AE: Skin lesion [2]: 5 (11.6) n (%) | Treatment-emergent AE: Thrombocytopenia [2]: 2 (4.7) n (%) | Treatment-emergent AE: Upper respiratory tract infection [2]: 5 (11.6) n (%) | Treatment-emergent AE: Vomiting [2]: 16 (37.2) n (%) | Treatment-emergent AE: Abdominal distension [3]: 0 n (%) | Treatment-emergent AE: Abdominal pain [3]: 1 (2.3) n (%) | Treatment-emergent AE: Anemia [3]: 7 (16.3) n (%) | Treatment-emergent AE: Any AE [3]: 35 (81.4) n (%) | Treatment-emergent AE: Asthenia [3]: 2 (4.7) n (%) | Treatment-emergent AE: Back pain [3]: 0 n (%) | Treatment-emergent AE: Cardiac murmur [3]: 0 n (%) | Treatment-emergent AE: Chills [3]: 0 n (%) | Treatment-emergent AE: Constipation [3]: 0 n (%) | Treatment-emergent AE: Cough [3]: 0 n (%) | Treatment-emergent AE: Decreased appetite [3]: 0 n (%) | Treatment-emergent AE: Dehydration [3]: 0 n (%) | Treatment-emergent AE: Diarrhea [3]: 3 (7.0) n (%) | Treatment-emergent AE: Dizziness [3]: 0 n (%) | Treatment-emergent AE: Dyspnea [3]: 0 n (%) | Treatment-emergent AE: Edema peripheral [3]: 2 (4.7) n (%) | Treatment-emergent AE: Epistaxis [3]: 1 (2.3) n (%) | Treatment-emergent AE: Fatigue [3]: 4 (9.3) n (%) | Treatment-emergent AE: Hyperbilirubinemia [3]: 0 n (%) | Treatment-emergent AE: Hyperuricemia [3]: 1 (2.3) n (%) | Treatment-emergent AE: Insomnia [3]: 0 n (%) | Treatment-emergent AE: Nausea [3]: 0 n (%) | Treatment-emergent AE: Neutropenia [3]: 3 (7.0) n (%) | Treatment-emergent AE: Night sweats [3]: 0 n (%) | Treatment-emergent AE: Pain in extremity [3]: 0 n (%) | Treatment-emergent AE: Petechiae [3]: 0 n (%) | Treatment-emergent AE: Pyrexia [3]: 3 (7.0) n (%) | Treatment-emergent AE: Skin lesion [3]: 0 n (%) | Treatment-emergent AE: Thrombocytopenia [3]: 6 (14.0) n (%) | Treatment-emergent AE: Upper respiratory tract infection [3]: 0 n (%) | Treatment-emergent AE: Vomiting [3]: 0 n (%) | SAE Management/Outcome (phase 1, listing per patient and SAE): Fatal; also recorded: Dose not changed; recovered/resolved with sequelae; also recorded: Drug withdrawn; recovered/resolved with sequelae; also recorded: Drug interrupted; recovered/resolved with sequelae | Deaths attributed to AEs (phase 1, n = 43): Seven | Discontinuations because of an AE considered treatment related (phase 1, n = 43): three | Dose interruptions due to AEs (phase 1, n = 43): 18 patients | Dose reductions due to AEs (phase 1, n = 43): 9 patients | Grade 3/4 anemia (phase 1, n = 43): 16.3% | Grade 3/4 thrombocytopenia (phase 1, n = 43): 14.0% | Grade 3 treatment-related AEs (phase 1, n = 43): 20.9% | Grade 4 treatment-related AEs (phase 1, n = 43): 4.7% | Patients who died during study participation (phase 1, n = 43): 32.6% | Patients who discontinued pacritinib because of an AE (phase 1, n = 43): Eight | Patients with SAEs (phase 1, n = 43): 44.2% | Patients with SAEs considered treatment related (phase 1, n = 43): 9.3% | Treatment-related AE: diarrhea (phase 1, n = 43): 65.1% | Treatment-related AE: nausea (phase 1, n = 43): 34.9% | Treatment-related AE: thrombocytopenia (phase 1, n = 43): 11.6% | Treatment-related AE: vomiting (phase 1, n = 43): 23.3%
